# pIC50: −log10 of the molar value.
# Assay: Antagonist activity at CXCR3 in rat leukocytes assessed as inhibition of ITAC-induced cell migration by flow cytometry
row,SMILES,pIC50
1,O=C([C@@H]1C=C2c3cccc4[nH]cc(c34)C[C@H]2N(C(=O)Nc2ccccc2)C1)N1CCOCC1,7.11
2,O=C([C@@H]1C=C2c3cccc4[nH]cc(c34)C[C@H]2N(C(=O)Nc2ccccc2)C1)N1CCCC1,7.72
3,O=C([C@@H]1C=C2c3cccc4[nH]cc(c34)C[C@H]2N(C(=O)Nc2ccccc2)C1)N1CCCCC1,7.89
4,"CCN(CC)C(=O)[C@@H]1C=C2c3cccc4[nH]cc(c34)C[C@H]2N(C(=O)Nc2ccccc2)C1 [(6aR,9R)-N9,N9-diethyl-N7-phenyl-6,6a,8,9-tetrahydroindolo[4,3-fg]quinoline-7,9(4H)-dicarboxamide]",7.13
